Values after ≈ are worked out from the molar mass of the structure shown.
Experiments:
Escherichia coli [1] = test: Antibacterial activity against Escherichia coli ATCC 25922; format: functional
Citrobacter koseri = test: Antibacterial activity against Citrobacter koseri ATCC 27028; format: functional
Klebsiella pneumoniae [2] = test: Antibacterial activity against Klebsiella pneumoniae ATCC 7761; format: functional
Salmonella typhi = test: Antibacterial activity against Salmonella typhi ATCC 700931; format: functional, Salmonella enterica subsp. enterica serovar Typhi; settings: Salmonella enterica
Shigella dysenteriae = test: Antibacterial activity against Shigella dysenteriae ATCC 32412; format: functional
Pseudomonas aeruginosa = test: Antibacterial activity against Pseudomonas aeruginosa ATCC 27853; format: functional
Staphylococcus aureus = test: Antibacterial activity against Staphylococcus aureus ATCC 25923; format: functional
Enterococcus faecalis = test: Antibacterial activity against Enterococcus faecalis ATCC 51299; format: functional
Bacillus subtilis = test: Antibacterial activity against Bacillus subtilis ATCC 9372; format: functional
Streptococcus pyogenes = test: Antibacterial activity against Streptococcus pyogenes ATCC 19615; format: functional
Escherichia coli [3] = test: Antibacterial activity against ampicillin-resistant Escherichia coli clinical isolate; format: functional
Klebsiella pneumoniae [4] = test: Antibacterial activity against ampicillin-resistant Klebsiella pneumoniae clinical isolate; format: functional
Escherichia coli [5] = test: Ratio of ampicillin MIC to compound MIC for ampicillin-resistant Escherichia coli clinical isolate; format: functional
Klebsiella pneumoniae [6] = test: Ratio of ampicillin MIC to compound MIC for ampicillin-resistant Klebsiella pneumoniae clinical isolate; format: functional

| Structure (SMILES) | MIC (Escherichia coli [1]) [µg/mL] | MIC (Citrobacter koseri) [µg/mL] | MIC (Klebsiella pneumoniae [2]) [µg/mL] | MIC (Salmonella typhi) [µg/mL] | MIC (Shigella dysenteriae) [µg/mL] | MIC (Pseudomonas aeruginosa) [µg/mL] | MIC (Staphylococcus aureus) [µg/mL] | MIC (Enterococcus faecalis) [µg/mL] | MIC (Bacillus subtilis) [µg/mL] | MIC (Streptococcus pyogenes) [µg/mL] | MIC (Escherichia coli [3]) [µg/mL] | MIC (Klebsiella pneumoniae [4]) [µg/mL] | Ratio (Escherichia coli [5]) | Ratio (Klebsiella pneumoniae [6]) |
| --- | --- | --- | --- | --- | --- | --- | --- | --- | --- | --- | --- | --- | --- | --- |
| CCOC(=O)C1=C(C)NC(C)=C(C(=O)OCC)C1c1cc(OC)c(OC)c(OC)c1 | 2500 (≈ 5960 µM) | 2500 (≈ 5960 µM) | 2500 (≈ 5960 µM) | 1250 (≈ 2980 µM) | 1250 (≈ 2980 µM) | 2500 (≈ 5960 µM) | 1250 (≈ 2980 µM) | 1250 (≈ 2980 µM) | 1250 (≈ 2980 µM) | 2500 (≈ 5960 µM) | 250 (≈ 596 µM) | 250 (≈ 596 µM) | 4 | 4 |
| CCOC(=O)C1=C(C)NC(C)=C(C(=O)OCC)C1c1ccc(O)cc1 | 2500 (≈ 7240 µM) | 2500 (≈ 7240 µM) | 2500 (≈ 7240 µM) | 5000 (≈ 14500 µM) | 5000 (≈ 14500 µM) | 5000 (≈ 14500 µM) | 2500 (≈ 7240 µM) | 2500 (≈ 7240 µM) | 2500 (≈ 7240 µM) | 2500 (≈ 7240 µM) | 125 (≈ 362 µM) | 125 (≈ 362 µM) | 4 | 4 |
| CCOC(=O)C1=C(C)NC(C)=C(C(=O)OCC)C1c1ccccc1 | 2500 (≈ 7590 µM) | 2500 (≈ 7590 µM) | 1250 (≈ 3790 µM) | 2500 (≈ 7590 µM) | 1250 (≈ 3790 µM) | 1250 (≈ 3790 µM) | 1250 (≈ 3790 µM) | 2500 (≈ 7590 µM) | 2500 (≈ 7590 µM) | 2500 (≈ 7590 µM) | 125 (≈ 379 µM) | 125 (≈ 379 µM) | 4 | 4 |
| CCOC(=O)C1=C(C)NC(C)=C(C(=O)OCC)C1c1ccc(OC)c(OC)c1 | 2500 (≈ 6420 µM) | 2500 (≈ 6420 µM) | 2500 (≈ 6420 µM) | 1250 (≈ 3210 µM) | 1250 (≈ 3210 µM) | 1250 (≈ 3210 µM) | 1250 (≈ 3210 µM) | 1250 (≈ 3210 µM) | 125 (≈ 321 µM) | 1250 (≈ 3210 µM) | 125 (≈ 321 µM) | 125 (≈ 321 µM) | 4 | 4 |
| CCOC(=O)C1=C(C)NC(C)=C(C(=O)OCC)C1c1cc(OC)ccc1OC | 500 (≈ 1280 µM) | 250 (≈ 642 µM) | 250 (≈ 642 µM) | 500 (≈ 1280 µM) | 500 (≈ 1280 µM) | 2500 (≈ 6420 µM) | 250 (≈ 642 µM) | 250 (≈ 642 µM) | 2500 (≈ 6420 µM) | 250 (≈ 642 µM) | 250 (≈ 642 µM) | 125 (≈ 321 µM) | 4 | 4 |
| CC1(C)S[C@@H]2[C@H](NC(=O)[C@H](N)c3ccccc3)C(=O)N2[C@H]1C(=O)O [AMPICILLIN] | 200 (≈ 572 µM) | 25 (≈ 71.5 µM) | 500 (≈ 1430 µM) | 5 (≈ 14.3 µM) | 50 (≈ 143 µM) | 2 (≈ 5.72 µM) | 10 (≈ 28.6 µM) | 15 (≈ 42.9 µM) | 25 (≈ 71.5 µM) | 0.06 (≈ 0.172 µM) | > 2000 | > 2000 |  |  |
| CCOC(=O)C1=C(C)NC(C)=C(C(=O)OCC)C1c1ccc(O)c(OC)c1 | 125 (≈ 333 µM) | 125 (≈ 333 µM) | 125 (≈ 333 µM) | 125 (≈ 333 µM) | 125 (≈ 333 µM) | 125 (≈ 333 µM) | 125 (≈ 333 µM) | 125 (≈ 333 µM) | 125 (≈ 333 µM) | 125 (≈ 333 µM) | 31.2 (≈ 83.2 µM) | 31.2 (≈ 83.2 µM) | 4 | 4 |
| CCOC(=O)C1=C(C)N=C(C)/C(=C(/O)OCC)C1 | 1250 (≈ 4930 µM) | 1250 (≈ 4930 µM) | 1250 (≈ 4930 µM) | 2500 (≈ 9870 µM) | 1250 (≈ 4930 µM) | 1250 (≈ 4930 µM) | 1250 (≈ 4930 µM) | 1250 (≈ 4930 µM) | 1250 (≈ 4930 µM) | 1250 (≈ 4930 µM) | 125 (≈ 493 µM) | 62.5 (≈ 247 µM) | 4 | 4 |
| CCOC(=O)C1=C(C)NC(C)=C(C(=O)OCC)C1c1ccccc1O | 250 (≈ 724 µM) | 125 (≈ 362 µM) | 125 (≈ 362 µM) | 500 (≈ 1450 µM) | 250 (≈ 724 µM) | 250 (≈ 724 µM) | 250 (≈ 724 µM) | 250 (≈ 724 µM) | 250 (≈ 724 µM) | 250 (≈ 724 µM) | 62.5 (≈ 181 µM) | 31.2 (≈ 90.5 µM) | 4 | 4 |
| CCOC(=O)C1=C(C)NC(C)=C(C(=O)OCC)C1c1ccccc1Cl | 250 (≈ 687 µM) | 250 (≈ 687 µM) | 250 (≈ 687 µM) | 250 (≈ 687 µM) | 250 (≈ 687 µM) | 250 (≈ 687 µM) | 125 (≈ 344 µM) | 125 (≈ 344 µM) | 250 (≈ 687 µM) | 125 (≈ 344 µM) | 125 (≈ 344 µM) | 125 (≈ 344 µM) | 4 | 4 |
| CCOC(=O)C1=C(C)NC(C)=C(C(=O)OCC)C1c1cccc(O)c1 | 500 (≈ 1450 µM) | 500 (≈ 1450 µM) | 500 (≈ 1450 µM) | 500 (≈ 1450 µM) | 125 (≈ 362 µM) | 1250 (≈ 3620 µM) | 1250 (≈ 3620 µM) | 1250 (≈ 3620 µM) | 1250 (≈ 3620 µM) | 1250 (≈ 3620 µM) | 125 (≈ 362 µM) | 62.5 (≈ 181 µM) | 4 | 4 |
| CCOC(=O)C1=C(C)NC(C)=C(C(=O)OCC)C1c1cccc([N+](=O)[O-])c1 | 2500 (≈ 6680 µM) | 2500 (≈ 6680 µM) | 2500 (≈ 6680 µM) | 1250 (≈ 3340 µM) | 2500 (≈ 6680 µM) | 5000 (≈ 13400 µM) | 1250 (≈ 3340 µM) | 2500 (≈ 6680 µM) | 2500 (≈ 6680 µM) | 2500 (≈ 6680 µM) | 125 (≈ 334 µM) | 125 (≈ 334 µM) | 4 | 4 |
| CCOC(=O)C1=C(C)NC(C)=C(C(=O)OCC)C1c1ccc(OC)cc1 | 1250 (≈ 3480 µM) | 1250 (≈ 3480 µM) | 1250 (≈ 3480 µM) | 5000 (≈ 13900 µM) | 2500 (≈ 6960 µM) | 5000 (≈ 13900 µM) | 2500 (≈ 6960 µM) | 2500 (≈ 6960 µM) | 1250 (≈ 3480 µM) | 2500 (≈ 6960 µM) | 62.5 (≈ 174 µM) | 125 (≈ 348 µM) | 4 | 4 |
| CCOC(=O)C1=C(C)NC(C)=C(C(=O)OCC)C1c1ccc(Cl)cc1 | 125 (≈ 344 µM) | 125 (≈ 344 µM) | 125 (≈ 344 µM) | 500 (≈ 1370 µM) | 500 (≈ 1370 µM) | 500 (≈ 1370 µM) | 125 (≈ 344 µM) | 125 (≈ 344 µM) | 500 (≈ 1370 µM) | 125 (≈ 344 µM) | 62.5 (≈ 172 µM) | 31.2 (≈ 85.9 µM) | 4 | 4 |

Source: ChEMBL document CHEMBL2069240, “Design, solvent free synthesis, and antimicrobial evaluation of 1,4 dihydropyridines” (2012)
